# Reference: patent US20180256519A1, “COMPOSITION FOR PREVENTING OR TREATING MITOCHONDRIAL DISEASES CAUSED BY IMMUNOSUPPRESSANTS, AND IMMUNE DISEASES, CONTAINING METFORMIN” (THE CATHOLIC UNIVERSITY OF KOREA INDUSTRY-ACADEMIC …, priority 2015, published 2018)
# Key:
# [1] = test system: allogeneic reactive T cells; test: Allogeneic reactive T cell proliferation, mixed lymphocyte reaction ([3H]-thymidine uptake); type: cell-based, mouse (Balb/c, C57BL/6); settings: metformin 1000 uM, rapamycin 1 nM or 100 nM; 3 days
# Description: CD4+ T cells (2×10^5 cells/well) from normal donors (Balb/c, responder) and splenocytes (2×10^5 cells/well) with T cells removed, which were derived from irradiated recipients (syngeneic) or donors (C57BL/ 6, stimulator, allogeneic), were added to each well of a 96-well plate, followed by mixed incubation. Here, for the allogeneic reaction, the cells were treated with metformin (1000 uM) and rapamycin (1 nM or 100 nM) according to experimental conditions, followed by incubation for 3 days. On the last day of the incubation, [^3H]-thymidine was added, followed by additional incubation for 18 hours, and the [^3H]-thymidine uptake of cells was measured by the Liquid Scintillation Counter (Beckman, USA), and expressed as cpm. Statistical assay was conducted by using Graph prism (t-test, ANOVA), and values of p<0.05 were considered statistically significant.
# IFN-γ = IFN-γ secretion by allogeneic reactive T cells in mixed lymphocyte reaction (ELISA); type: cell-based, mouse (Balb/c, C57BL/6); settings: metformin 1000 μM, rapamycin 1 nM or 100 nM; 3 days
# [2] = test system: Splenocytes obtained from normal C57BL/6 mice; test: MTT non-specific cytotoxicity in T cell activation conditions; type: cell-based; settings: metformin 1000 μM, rapamycin 100 nM; 3 days; anti-CD3 0.5 μg/ml
# Description: (§1) Splenocytes obtained from normal C57BL/6 mice were added at 2×10^5 cells in the 96-well plate, and treated with metformin (1000 μM) or rapamycin (100 nM) according to experimental conditions, followed by incubation for 3 days, under anti-CD3 activation conditions (0.5 μg/ml). For MTT analysis, 3-(4,5-dimethyl-thiazol-2-yl)-2,5-diphenyltetrazolium bromide was added 4 hours before cell harvest, followed by incubation for 4 hours, and then each well was treated with DMSO, and the absorbance was measured at the wavelength of 540 nm.
# IL-17 = IL-17 secretion by splenocytes in T cell activation conditions (ELISA); type: cell-based, C57BL/6 mice; settings: metformin 1000 uM, rapamycin 100 nM; 3 days; anti-CD3 0.5 μg/ml; vs Nil
# Description: as §1
# The cells were treated with metformin (1000 uM) or rapamycin (100 nM) according to experimental conditions, followed by incubation for 3 days, and then the amount of IL-17 present in the culture liquid was measured by ELISA.
# Treg cells = test: Treg cell activity in splenocytes under anti-CD3 activation (flow cytometry); type: cell-based, C57BL/6 mice; settings: metformin 1000 μM, rapamycin 100 nM; 3 days; anti-CD3 0.5 μg/ml
# Description: Splenocytes obtained from normal C57BL/6 mice were added at 1×10^6 cells in the 24-well plate, and treated with metformin (1000 μM) or rapamycin (100 nM) according to experimental conditions, followed by incubation for 3 days, under anti-CD3 activation conditions (0.5 μg/ml). For flow cytometry, the cells were treated with anti-CD4-percp antibody and anti-CD25-APC antibody, followed by incubation at 4[…] for 30 minutes, and then the cells were subjected to permeabilization, and then reacted with anti-Foxp3-PE. For analysis of Treg activity, the cells expressing the CD4+CD25+Foxp3+ marker were gated and analyzed. The results were expressed by a bar graph showing the proportion of Foxp3+CD25+ cells occupying in the cultured all CD4+ cells.
# [3] = test system: LPS-stimulated splenocytes; test: Inflammatory cytokines secreted in LPS-stimulated splenocytes (ELISA); type: cell-based, C57BL/6 mice; settings: LPS 100 ng/ml; metformin 1000 uM, rapamycin 100 nM; 3 days
# Description: Splenocytes obtained from normal C57BL/6 mice were added into a 24-well plate (1×10^6 cells/well), and stimulated by LPS (100 ng/ml), and then treated with metformin (1000 uM) or rapamycin (100 nM) according to experimental conditions, followed by incubation for 3 days. […] Statistical analysis was conducted by using Graph prism (t-test, ANOVA), and values of p<0.05 were considered statistically significant.
# [4] = test system: LPS-stimulated splenocytes; test: Immunoglobulin (IgG) in culture liquid of LPS-stimulated splenocytes (ELISA); type: cell-based, mouse; settings: LPS 100 ng/ml; metformin 1000 uM, rapamycin 100 nM
# Description: Splenocytes obtained from normal C57BL/6 mice were added into a 24-well plate (1×10^6 cells/well), and stimulated by LPS (100 ng/ml), and then treated with metformin (1000 uM) or rapamycin (100 nM) according to experimental conditions, followed by incubation for 3 days. […] Statistical analysis was conducted by using Graph prism (t-test, ANOVA), and values of p<0.05 were considered statistically significant.
# Thereafter, the level of IgG present in the culture liquid was measured by ELISA.
# [5] = test system: Synovial cells isolated from patients with rheumatoid arthritis (RA); test: Measurement of mitochondrial respiration (oxygen consumption rate); type: cell-based, human; settings: rapamycin 100 nM
# Description: The present inventors examined the effect of metformin on rapamycin-induced mitochondrial respiration deterioration. The cells were treated with rapamycin (100 nM) alone or co-treated with rapamycin (100 nM) and metformin (1 mM), and then the mitochondrial respiratory rate was examined through the measurement of the oxygen consumption rate. Oligomycin and FCCP treatment conditions were the same.
# NIH3T3 cells [6] = test: Analysis of mitochondrial content (MitoTracker staining); type: cell-based; settings: 72-hr incubation; rapamycin 1 nM, metformin 200 uM or 1 mM
# Description: The mitochondria were observed by fluorescent microscopy for each experimental condition. Specifically, the MitoTracker was diluted in DMEM medium to a concentration of 100 nM, and then added on the NIH3T3 plate, followed by incubation at 37° C. for 15 minutes and washing with PBS. Thereafter, for α-tubulin staining, the cells were fixed with acetone and methanol (1:1) for 15 minutes, and then washed with PBS for 15 minutes.
# NIH3T3 cells [7] = test: Analysis of mitochondrial membrane potential (JC-1 staining); type: cell-based; settings: 72-hr incubation; rapamycin 1 nM, metformin 200 uM or 1 mM
# Description: For JC-1 staining, the cells were incubated in JC-1, which had been diluted in DMEM to a final concentration of 100 nM, at 37 °C for 15 minutes, and then the exchange into new DMEM medium was conducted, followed by observation by fluorescent microscopy.
# Sprague-Dawley rats = test: Rapamycin-induced diabetic symptoms and metformin co-administration in rats (body weight, urine volume, IPGTT, ITT); type: in vivo, rat
# Description: As experimental animals, Sprague-Dawley rats with 200-220 grams were used. The animals were fed with a 0.05% low-salt diet, and the experiment was conducted for a total of 6 weeks while drugs were administered according to experimental conditions (FIG. 5). […] Rapamycin dissolved in olive oil was subcutaneously injected into the rapamycin administered alone group (Rapamycin) and the co-administered group (Rapa+Met) at a dose of 0.3 mg/kg of body weight every day for six weeks. Metformin was orally administered at a dose of 250 mg/kg of body weight every day for 2.5 weeks from the 3.5 weeks of rapamycin administration. Distilled water (DW, 3 mL/kg) instead of metformin was orally administered into the rapamycin administered alone group and the control group. The body weight and 24-hr urine volume of the control and experimental groups were measured six weeks after the start of the experiment FIGS. 6A and 6B. The urine volume was measured in the metabolic cage. The animals of each group were tested for the intraperitoneal glucose tolerance test (IPGTT) and the insulin tolerance test (ITT), and the change in blood glucose level over time was observed FIGS. 7A, 7B, 8A and 8B). The intraperitoneal glucose tolerance test (IPGTT) was performed by intraperitoneal administration of 1.5 g/kg of body weight of glucose after fasting. The insulin resistance test was carried out such that the blood glucose level was measured at 30-min intervals after subcutaneous injection of insulin at 0.8 U/kg of body weight following 5-hr fasting. The quantitative index (area under the curve of glucose, AUCg) was derived using a graph of blood glucose level change per hour, and was expressed as a bar graph. Data were expressed as mean value±standard deviation, and statistical significance was determined by student's t-test.
# [8] = test system: collagen-induced arthritis mouse models; test: Glucose tolerance test and insulin tolerance test in arthritis animal models; type: in vivo; settings: arthritis mice after 12 weeks, rapamycin 1 mg/kg
# Description: The intraperitoneal glucose tolerance test was performed by intraperitoneal injection of glucose at 1 g/kg of body weight after fasting for 12 hours. The insulin tolerance test was performed at 30 minutes interval after the subcutaneous injection of […] at 1 U/kg of body weight.
# [9] = rapamycin 0.3 mg/kg s.c. daily 6 weeks, metformin 250 mg/kg oral daily from 3.5 weeks, vs control group (VH)
smiles,measurement,setting,value
CN(C)C(=N)NC(=N)N [metformin],"allogeneic reactive T cell proliferation ([3H]-thymidine uptake, cpm)",[1],reduced the cpm values
same,secretion of IFN-γ,IFN-γ,reduced
same,non-specific cytotoxicity (MTT),[2],no non-specific cytotoxicity
same,amount of IL-17 present in the culture liquid,IL-17,reduced
same,Treg activity (proportion of Foxp3+CD25+ cells in CD4+ cells),Treg cells,increased
same,concentration of IL-6 present in the culture liquid,[3],reduced
same,concentration of TNF-α present in the culture liquid,[3],reduced
same,concentration of immunoglobulin (IgG) present in the culture liquid,[4],reduced
CO[C@H]1C[C@@H]2CC[C@@H](C)[C@@](O)(O2)C(=O)C(=O)N2CCCC[C@H]2C(=O)O[C@H]([C@H](C)C[C@@H]2CC[C@@H](O)[C@H](OC)C2)CC(=O)[C@H](C)/C=C(\C)[C@@H](O)[C@@H](OC)C(=O)[C@H](C)C[C@H](C)/C=C/C=C/C=C/1C [rapamycin],increase in mitochondrial respiratory rate by FCCP,"[5]; FCCP 3 uM, metformin 1 mM",remarkably low
same,mitochondrial respiration capacity (oxygen consumption rate),"[5]; before the treatment with oligomycin, vs control group",reduced respiration capacity compared with the control group
same,mitochondrial content (MitoTracker),NIH3T3 cells [6],reduced
same,mitochondrial membrane potential (JC-1 staining),NIH3T3 cells [7],not normally maintained
same,blood glucose level in intraperitoneal glucose tolerance test (IPGTT),"Sprague-Dawley rats; glucose 1.5 g/kg i.p. after fasting, rapamycin 0.3 mg/kg, metformin 250 mg/kg",highest blood glucose level among the three groups
same,blood glucose level in insulin tolerance test (ITT),"Sprague-Dawley rats; insulin 0.8 U/kg s.c. after 5-hr fasting, rapamycin 0.3 mg/kg, metformin 250 mg/kg",highest blood glucose level among the three groups
same,24-hr urine volume,Sprague-Dawley rats; [9],significantly increased
same,body weight,Sprague-Dawley rats; [9],significant reductions
same,"allogeneic reactive T cell proliferation ([3H]-thymidine uptake, cpm)",[1],reduced the cpm values
same,secretion of IFN-γ,IFN-γ,reduced
same,non-specific cytotoxicity (MTT),[2],no non-specific cytotoxicity
same,amount of IL-17 present in the culture liquid,IL-17,reduced
same,Treg activity (proportion of Foxp3+CD25+ cells in CD4+ cells),Treg cells,increased
same,concentration of IL-6 present in the culture liquid,[3],reduced
same,concentration of TNF-α present in the culture liquid,[3],reduced
same,concentration of immunoglobulin (IgG) present in the culture liquid,[4],reduced
same,blood glucose level in intraperitoneal glucose tolerance test,"[8]; glucose 1 g/kg i.p. after 12 h fasting, metformin 50 mg/kg",the highest
same,"glucose level in insulin tolerance test, start point of measurement",[8],the highest
same,"blood glucose level in insulin tolerance test, after the start point","[8]; metformin 50 mg/kg, vs control group (Vehicle)",maintained at similar levels
